Where two headings read alike, the source gives them in different places.
Experiments:
PKCε = target: T1, PKCε (Homo sapiens, UniProt Q02156); assay: Kinome profiler screen; assay type: biochemical; settings: at 20,000 nM inhibitor; kinase activity remaining
T1 construct: purchased Millipore KinaseProfiler

Met(D1246N) = target: T2, Met(D1246N) (Homo sapiens, UniProt P08581, D1228N); assay: Kinome profiler screen; assay type: biochemical; settings: at 20,000 nM inhibitor; kinase activity remaining
T2 construct: purchased Millipore KinaseProfiler

TLK2 = target: T3, TLK2 (Homo sapiens, UniProt Q86UE8); assay: Kinome profiler screen; assay type: biochemical; settings: at 20,000 nM inhibitor; kinase activity remaining
T3 construct: purchased Millipore KinaseProfiler

FGFR3 = target: T4, FGFR3 (Homo sapiens, UniProt P22607); assay: Kinome profiler screen; assay type: biochemical; settings: at 20,000 nM inhibitor; kinase activity remaining
T4 construct: purchased Millipore KinaseProfiler

NEK7 = target: T5, NEK7 (Homo sapiens, UniProt Q8TDX7); assay: Kinome profiler screen; assay type: biochemical; settings: at 20,000 nM inhibitor; kinase activity remaining
T5 construct: purchased Millipore KinaseProfiler

TSSK1 = target: T6, TSSK1 (Homo sapiens, UniProt Q9BXA7); assay: Kinome profiler screen; assay type: biochemical; settings: at 20,000 nM inhibitor; kinase activity remaining
T6 construct: purchased Millipore KinaseProfiler

EGFR(L858R) = target: T7, EGFR(L858R) (Homo sapiens, UniProt P00533, L858R); assay: Kinome profiler screen; assay type: biochemical; settings: at 20,000 nM inhibitor; kinase activity remaining
T7 construct: purchased Millipore KinaseProfiler

CaMKIIδ = target: T8, CaMKIIδ (Homo sapiens, UniProt Q13557); assay: Kinome profiler screen; assay type: biochemical; settings: at 20,000 nM inhibitor; kinase activity remaining
T8 construct: purchased Millipore KinaseProfiler

CHK2 = target: T9, CHK2 (Homo sapiens, UniProt O96017); assay: Kinome profiler screen; assay type: biochemical; settings: at 20,000 nM inhibitor; kinase activity remaining
T9 construct: purchased Millipore KinaseProfiler

Itk = target: T10, Itk (Homo sapiens, UniProt Q08881); assay: Kinome profiler screen; assay type: biochemical; settings: at 20,000 nM inhibitor; kinase activity remaining
T10 construct: purchased Millipore KinaseProfiler

CaMKIδ = target: T11, CaMKIδ (Homo sapiens, UniProt Q8IU85); assay: Kinome profiler screen; assay type: biochemical; settings: at 20,000 nM inhibitor; kinase activity remaining
T11 construct: purchased Millipore KinaseProfiler

KDR = target: T12, KDR (Homo sapiens, UniProt P35968); assay: Kinome profiler screen; assay type: biochemical; settings: at 20,000 nM inhibitor; kinase activity remaining
T12 construct: purchased Millipore KinaseProfiler

Haspin = target: T13, Haspin (Homo sapiens, UniProt Q8TF76); assay: Kinome profiler screen; assay type: biochemical; settings: at 20,000 nM inhibitor; kinase activity remaining
T13 construct: purchased Millipore KinaseProfiler

cKit = target: T14, cKit (Homo sapiens, UniProt P10721); assay: Kinome profiler screen; assay type: biochemical; settings: at 20,000 nM inhibitor; kinase activity remaining
T14 construct: purchased Millipore KinaseProfiler

Pim-3 = target: T15, Pim-3 (Homo sapiens, UniProt Q86V86); assay: Kinome profiler screen; assay type: biochemical; settings: at 20,000 nM inhibitor; kinase activity remaining
T15 construct: purchased Millipore KinaseProfiler

IKKα = target: T16, IKKα (Homo sapiens, UniProt O15111); assay: Kinome profiler screen; assay type: biochemical; settings: at 20,000 nM inhibitor; kinase activity remaining
T16 construct: purchased Millipore KinaseProfiler

CDK2/cyclinA = target: T17, CDK2/cyclinA (Homo sapiens, UniProt P24941); assay: Kinome profiler screen; assay type: biochemical; settings: at 20,000 nM inhibitor; kinase activity remaining
T17 construct: purchased Millipore KinaseProfiler

Hck = target: T18, Hck (Homo sapiens, UniProt P08631); assay: Kinome profiler screen; assay type: biochemical; settings: at 20,000 nM inhibitor; kinase activity remaining
T18 construct: purchased Millipore KinaseProfiler

MINK = target: T19, MINK (Homo sapiens, UniProt Q8N4C8); assay: Kinome profiler screen; assay type: biochemical; settings: at 20,000 nM inhibitor; kinase activity remaining
T19 construct: purchased Millipore KinaseProfiler

BTK(R28H) = target: T20, BTK(R28H) (Homo sapiens, UniProt Q06187, R28H); assay: Kinome profiler screen; assay type: biochemical; settings: at 20,000 nM inhibitor; kinase activity remaining
T20 construct: purchased Millipore KinaseProfiler

ROCK-I = target: T21, ROCK-I (Homo sapiens, UniProt Q13464); assay: Kinome profiler screen; assay type: biochemical; settings: at 20,000 nM inhibitor; kinase activity remaining
T21 construct: purchased Millipore KinaseProfiler

Bmx = target: T22, Bmx (Homo sapiens, UniProt P51813); assay: Kinome profiler screen; assay type: biochemical; settings: at 20,000 nM inhibitor; kinase activity remaining
T22 construct: purchased Millipore KinaseProfiler

IGF-1R = target: T23, IGF-1R (Homo sapiens, UniProt P08069); assay: Kinome profiler screen; assay type: biochemical; settings: at 20,000 nM inhibitor; kinase activity remaining
T23 construct: purchased Millipore KinaseProfiler

Flt3 = target: T24, Flt3 (Homo sapiens, UniProt P36888); assay: Kinome profiler screen; assay type: biochemical; settings: at 20,000 nM inhibitor; kinase activity remaining
T24 construct: purchased Millipore KinaseProfiler

Rsk4 = target: T25, Rsk4 (Homo sapiens, UniProt Q9UK32); assay: Kinome profiler screen; assay type: biochemical; settings: at 20,000 nM inhibitor; kinase activity remaining
T25 construct: purchased Millipore KinaseProfiler

MAPK2 = target: T26, MAPK2 (Homo sapiens, UniProt P28482); assay: Kinome profiler screen; assay type: biochemical; settings: at 20,000 nM inhibitor; kinase activity remaining
T26 construct: purchased Millipore KinaseProfiler

Abl(Y253F) = target: T27, Abl(Y253F) (Homo sapiens, UniProt P00519, Y253F); assay: Kinome profiler screen; assay type: biochemical; settings: at 20,000 nM inhibitor; kinase activity remaining
T27 construct: purchased Millipore KinaseProfiler

Plk1 = target: T28, Plk1 (Homo sapiens, UniProt P53350); assay: Kinome profiler screen; assay type: biochemical; settings: at 20,000 nM inhibitor; kinase activity remaining
T28 construct: purchased Millipore KinaseProfiler

Fms = target: T29, Fms (Homo sapiens, UniProt P07333); assay: Kinome profiler screen; assay type: biochemical; settings: at 20,000 nM inhibitor; kinase activity remaining
T29 construct: purchased Millipore KinaseProfiler

CK2α2 = target: T30, CK2α2 (Homo sapiens, UniProt P19784); assay: Kinome profiler screen; assay type: biochemical
T30 construct: purchased Millipore KinaseProfiler

PKCβII = target: T31, PKCβII (Homo sapiens, UniProt P05771); assay: Kinome profiler screen; assay type: biochemical; settings: at 20,000 nM inhibitor; kinase activity remaining
T31 construct: purchased Millipore KinaseProfiler

SIK = target: T32, SIK (Homo sapiens, UniProt P57059); assay: Kinome profiler screen; assay type: biochemical; settings: at 20,000 nM inhibitor; kinase activity remaining
T32 construct: purchased Millipore KinaseProfiler

Plk3 = target: T33, Plk3 (Homo sapiens, UniProt Q9H4B4); assay: Kinome profiler screen; assay type: biochemical; settings: at 20,000 nM inhibitor; kinase activity remaining
T33 construct: purchased Millipore KinaseProfiler

PKG1α = target: T34, PKG1α (Homo sapiens, UniProt Q13976); assay: Kinome profiler screen; assay type: biochemical; settings: at 20,000 nM inhibitor; kinase activity remaining
T34 construct: purchased Millipore KinaseProfiler

[1] = target: T35, PI3 Kinase (p110α/p85α)(m) (Mus musculus, UniProt P42337); assay: Kinome profiler screen; assay type: biochemical; settings: at 20,000 nM inhibitor; kinase activity remaining
T35 construct: purchased Millipore KinaseProfiler

BV-2 cells = assay: IL-1β production in BV-2 cells stimulated with TLR ligands; assay type: cell-based, murine; settings: ligands for TLR2, TLR4, TLR7/8, TLR9
SGK2 = target: T36, SGK2 (Homo sapiens, UniProt Q9HBY8); assay: Kinome profiler screen; assay type: biochemical; settings: at 20,000 nM inhibitor; kinase activity remaining
T36 construct: purchased Millipore KinaseProfiler

CK2 = target: T37, CK2 (Homo sapiens, UniProt P68400); assay: Kinome profiler screen; assay type: biochemical; settings: at 20,000 nM inhibitor; kinase activity remaining
T37 construct: purchased Millipore KinaseProfiler

CDK3/cyclinE = target: T38, CDK3/cyclinE (Homo sapiens, UniProt Q00526); assay: Kinome profiler screen; assay type: biochemical; settings: at 20,000 nM inhibitor; kinase activity remaining
T38 construct: purchased Millipore KinaseProfiler

MARK1 = target: T39, MARK1 (Homo sapiens, UniProt Q9P0L2); assay: Kinome profiler screen; assay type: biochemical; settings: at 20,000 nM inhibitor; kinase activity remaining
T39 construct: purchased Millipore KinaseProfiler

PAK6 = target: T40, PAK6 (Homo sapiens, UniProt Q9NQU5); assay: Kinome profiler screen; assay type: biochemical; settings: at 20,000 nM inhibitor; kinase activity remaining
T40 construct: purchased Millipore KinaseProfiler

[2] = target: T41, PI3 Kinase (p110 β/p85β)(m) (Mus musculus, UniProt Q8BTI9); assay: Kinome profiler screen; assay type: biochemical; settings: at 20,000 nM inhibitor; kinase activity remaining
T41 construct: purchased Millipore KinaseProfiler

ROCK-II = target: T42, ROCK-II (Homo sapiens, UniProt O75116); assay: Kinome profiler screen; assay type: biochemical; settings: at 20,000 nM inhibitor; kinase activity remaining
T42 construct: purchased Millipore KinaseProfiler

MELK = target: T43, MELK (Homo sapiens, UniProt Q14680); assay: Kinome profiler screen; assay type: biochemical; settings: at 20,000 nM inhibitor; kinase activity remaining
T43 construct: purchased Millipore KinaseProfiler

T41 sequence (Q8BTI9 whole entry): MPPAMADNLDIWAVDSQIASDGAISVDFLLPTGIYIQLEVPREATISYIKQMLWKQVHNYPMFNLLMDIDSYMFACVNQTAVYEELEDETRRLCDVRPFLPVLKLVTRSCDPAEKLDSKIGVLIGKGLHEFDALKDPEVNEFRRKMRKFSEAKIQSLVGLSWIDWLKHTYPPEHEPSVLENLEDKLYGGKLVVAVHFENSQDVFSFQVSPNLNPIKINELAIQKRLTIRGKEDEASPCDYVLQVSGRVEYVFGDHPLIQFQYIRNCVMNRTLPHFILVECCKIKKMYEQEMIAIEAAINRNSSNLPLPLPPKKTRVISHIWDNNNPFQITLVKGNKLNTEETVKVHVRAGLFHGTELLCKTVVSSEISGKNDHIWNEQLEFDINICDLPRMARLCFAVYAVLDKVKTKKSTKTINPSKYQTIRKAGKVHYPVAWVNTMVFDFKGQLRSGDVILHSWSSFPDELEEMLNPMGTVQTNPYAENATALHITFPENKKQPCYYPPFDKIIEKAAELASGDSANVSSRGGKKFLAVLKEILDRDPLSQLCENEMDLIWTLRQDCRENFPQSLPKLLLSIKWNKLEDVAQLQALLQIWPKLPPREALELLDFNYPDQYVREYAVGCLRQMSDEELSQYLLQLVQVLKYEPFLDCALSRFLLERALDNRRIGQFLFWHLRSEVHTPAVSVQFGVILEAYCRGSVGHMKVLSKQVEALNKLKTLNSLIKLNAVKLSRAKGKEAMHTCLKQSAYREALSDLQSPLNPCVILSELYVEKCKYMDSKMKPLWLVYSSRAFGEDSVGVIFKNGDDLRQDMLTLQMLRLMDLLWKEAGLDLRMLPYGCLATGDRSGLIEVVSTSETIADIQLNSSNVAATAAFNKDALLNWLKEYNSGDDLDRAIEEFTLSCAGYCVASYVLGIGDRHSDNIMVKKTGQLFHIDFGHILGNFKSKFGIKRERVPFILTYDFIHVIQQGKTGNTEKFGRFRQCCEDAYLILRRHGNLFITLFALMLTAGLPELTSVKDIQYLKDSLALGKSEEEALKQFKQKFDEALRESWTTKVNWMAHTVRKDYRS
T41 sequence (O08908 whole entry partner): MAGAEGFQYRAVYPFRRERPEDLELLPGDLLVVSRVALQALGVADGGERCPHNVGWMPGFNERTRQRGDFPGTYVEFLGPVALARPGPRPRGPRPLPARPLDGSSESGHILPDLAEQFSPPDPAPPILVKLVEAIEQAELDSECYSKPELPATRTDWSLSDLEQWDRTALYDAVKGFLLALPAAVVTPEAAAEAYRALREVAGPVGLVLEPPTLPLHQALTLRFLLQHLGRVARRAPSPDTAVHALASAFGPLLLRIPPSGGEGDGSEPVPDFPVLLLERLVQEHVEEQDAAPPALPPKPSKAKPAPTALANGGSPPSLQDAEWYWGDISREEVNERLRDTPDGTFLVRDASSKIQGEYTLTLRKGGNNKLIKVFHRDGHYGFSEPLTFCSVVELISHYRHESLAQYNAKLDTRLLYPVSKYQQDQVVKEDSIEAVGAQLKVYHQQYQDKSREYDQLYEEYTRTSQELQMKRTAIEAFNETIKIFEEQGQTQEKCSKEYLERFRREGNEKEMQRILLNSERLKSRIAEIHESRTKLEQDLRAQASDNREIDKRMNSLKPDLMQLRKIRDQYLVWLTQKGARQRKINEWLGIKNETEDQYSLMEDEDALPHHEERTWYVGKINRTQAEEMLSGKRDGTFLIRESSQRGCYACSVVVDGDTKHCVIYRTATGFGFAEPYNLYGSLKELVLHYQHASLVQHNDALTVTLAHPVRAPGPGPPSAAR
T39 sequence (Q9P0L2 whole entry): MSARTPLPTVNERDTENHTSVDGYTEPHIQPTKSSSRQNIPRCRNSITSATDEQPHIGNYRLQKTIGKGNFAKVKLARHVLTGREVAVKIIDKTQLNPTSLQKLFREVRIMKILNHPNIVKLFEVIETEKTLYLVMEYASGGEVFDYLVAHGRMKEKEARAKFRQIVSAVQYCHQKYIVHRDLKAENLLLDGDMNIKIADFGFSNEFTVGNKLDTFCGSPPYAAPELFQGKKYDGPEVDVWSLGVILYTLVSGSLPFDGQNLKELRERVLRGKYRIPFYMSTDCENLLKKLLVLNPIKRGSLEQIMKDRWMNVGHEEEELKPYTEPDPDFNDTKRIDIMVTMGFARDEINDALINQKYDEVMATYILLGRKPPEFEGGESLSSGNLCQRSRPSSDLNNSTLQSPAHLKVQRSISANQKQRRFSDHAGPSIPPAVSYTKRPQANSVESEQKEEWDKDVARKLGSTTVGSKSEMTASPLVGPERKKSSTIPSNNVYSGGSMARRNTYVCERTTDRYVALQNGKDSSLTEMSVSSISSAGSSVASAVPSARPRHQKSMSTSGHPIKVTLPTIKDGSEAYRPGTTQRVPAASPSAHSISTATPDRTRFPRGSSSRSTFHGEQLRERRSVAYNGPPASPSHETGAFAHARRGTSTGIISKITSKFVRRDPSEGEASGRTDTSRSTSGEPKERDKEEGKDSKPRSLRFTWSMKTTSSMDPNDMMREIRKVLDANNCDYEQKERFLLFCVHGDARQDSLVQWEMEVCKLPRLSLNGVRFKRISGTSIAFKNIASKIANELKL
T1 sequence (Q02156 whole entry): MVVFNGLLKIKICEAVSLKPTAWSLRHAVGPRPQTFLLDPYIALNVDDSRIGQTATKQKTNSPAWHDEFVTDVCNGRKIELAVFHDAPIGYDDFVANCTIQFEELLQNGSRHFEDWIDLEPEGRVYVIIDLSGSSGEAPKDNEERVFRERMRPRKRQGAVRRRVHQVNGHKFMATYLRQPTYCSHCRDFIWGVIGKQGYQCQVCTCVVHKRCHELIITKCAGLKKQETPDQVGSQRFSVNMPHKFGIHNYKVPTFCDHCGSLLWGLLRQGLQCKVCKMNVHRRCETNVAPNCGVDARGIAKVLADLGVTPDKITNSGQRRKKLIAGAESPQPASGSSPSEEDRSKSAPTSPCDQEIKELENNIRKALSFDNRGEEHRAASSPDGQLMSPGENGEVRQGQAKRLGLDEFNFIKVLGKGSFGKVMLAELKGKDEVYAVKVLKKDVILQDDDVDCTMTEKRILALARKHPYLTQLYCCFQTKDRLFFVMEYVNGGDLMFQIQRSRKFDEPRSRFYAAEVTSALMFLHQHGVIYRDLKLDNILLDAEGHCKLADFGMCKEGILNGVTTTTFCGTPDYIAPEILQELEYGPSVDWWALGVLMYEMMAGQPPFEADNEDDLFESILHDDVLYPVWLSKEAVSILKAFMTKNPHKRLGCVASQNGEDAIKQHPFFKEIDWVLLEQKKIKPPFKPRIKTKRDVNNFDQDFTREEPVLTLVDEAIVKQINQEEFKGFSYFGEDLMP
T32 sequence (P57059 whole entry): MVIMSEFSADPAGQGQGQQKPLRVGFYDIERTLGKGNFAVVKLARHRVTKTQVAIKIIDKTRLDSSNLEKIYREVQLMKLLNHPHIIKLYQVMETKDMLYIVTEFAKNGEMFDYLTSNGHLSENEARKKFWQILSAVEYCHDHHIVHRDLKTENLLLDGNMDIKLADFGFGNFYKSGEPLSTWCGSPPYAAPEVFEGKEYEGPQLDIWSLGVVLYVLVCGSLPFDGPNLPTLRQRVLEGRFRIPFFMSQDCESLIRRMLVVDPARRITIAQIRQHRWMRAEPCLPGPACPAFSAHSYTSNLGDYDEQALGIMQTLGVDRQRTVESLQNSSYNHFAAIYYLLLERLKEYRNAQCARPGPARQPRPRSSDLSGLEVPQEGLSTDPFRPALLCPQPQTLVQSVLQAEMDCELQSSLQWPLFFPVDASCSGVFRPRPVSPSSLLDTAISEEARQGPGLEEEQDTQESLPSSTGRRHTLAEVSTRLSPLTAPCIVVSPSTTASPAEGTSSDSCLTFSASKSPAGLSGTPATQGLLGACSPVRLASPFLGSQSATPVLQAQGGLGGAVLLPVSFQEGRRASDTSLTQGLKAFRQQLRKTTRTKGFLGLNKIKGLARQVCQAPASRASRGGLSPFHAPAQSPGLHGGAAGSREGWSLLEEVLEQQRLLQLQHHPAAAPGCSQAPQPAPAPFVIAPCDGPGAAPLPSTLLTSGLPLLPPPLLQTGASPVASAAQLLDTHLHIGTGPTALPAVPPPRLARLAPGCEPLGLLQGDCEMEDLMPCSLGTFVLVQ
T10 sequence (Q08881 whole entry): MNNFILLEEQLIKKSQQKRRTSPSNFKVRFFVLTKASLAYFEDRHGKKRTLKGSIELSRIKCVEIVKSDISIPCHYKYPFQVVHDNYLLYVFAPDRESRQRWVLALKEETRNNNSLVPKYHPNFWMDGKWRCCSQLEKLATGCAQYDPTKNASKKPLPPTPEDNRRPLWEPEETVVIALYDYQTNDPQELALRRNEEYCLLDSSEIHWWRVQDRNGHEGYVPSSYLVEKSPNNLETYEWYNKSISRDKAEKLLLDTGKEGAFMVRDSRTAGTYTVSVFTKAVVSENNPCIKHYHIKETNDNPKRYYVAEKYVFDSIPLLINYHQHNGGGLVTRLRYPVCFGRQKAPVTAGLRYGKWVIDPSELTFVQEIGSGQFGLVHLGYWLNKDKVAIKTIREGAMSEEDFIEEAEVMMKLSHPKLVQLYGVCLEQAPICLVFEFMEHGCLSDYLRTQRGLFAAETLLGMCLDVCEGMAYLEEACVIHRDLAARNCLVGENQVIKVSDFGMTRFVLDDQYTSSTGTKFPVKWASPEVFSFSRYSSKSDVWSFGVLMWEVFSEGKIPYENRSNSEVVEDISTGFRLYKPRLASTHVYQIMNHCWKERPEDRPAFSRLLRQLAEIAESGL

## CN(C)c1cc(-c2ccncc2)c(-c2ccc3ccccc3c2)nn1 [MW108, N, N-dimethyl-6-(naphthalen-2-yl)-5-(pyridin-4-yl)pyridazin-3-amine]
PKCε
  activity at 20 µM: 90%
Met(D1246N)
  activity at 20 µM: 80%
TLK2
  activity at 20 µM: 99%
FGFR3
  activity at 20 µM: 86%
NEK7
  activity at 20 µM: 108%
TSSK1
  activity at 20 µM: 101%
EGFR(L858R)
  activity at 20 µM: 48%
CaMKIIδ
  activity at 20 µM: 100%
CHK2
  activity at 20 µM: 97%
Itk
  activity at 20 µM: 90%
CaMKIδ
  activity at 20 µM: 97%
KDR
  activity at 20 µM: 87%
Haspin
  activity at 20 µM: 87%
cKit
  activity at 20 µM: 104%
Pim-3
  activity at 20 µM: 105%
IKKα
  activity at 20 µM: 105%
CDK2/cyclinA
  activity at 20 µM: 79%
Hck
  activity at 20 µM: 93%
MINK
  activity at 20 µM: 48%
BTK(R28H)
  activity at 20 µM: 101%
ROCK-I
  activity at 20 µM: 89%
Bmx
  activity at 20 µM: 87%
IGF-1R
  activity at 20 µM: 137%
Flt3
  activity at 20 µM: 108%
Rsk4
  activity at 20 µM: 96%
MAPK2
  activity at 20 µM: 113%
Abl(Y253F)
  activity at 20 µM: 98%
Plk1
  activity at 20 µM: 96%
Fms
  activity at 20 µM: 98%
CK2α2
  activity at 20 µM: 114%
PKCβII
  activity at 20 µM: 87%
SIK
  activity at 20 µM: 91%
Plk3
  activity at 20 µM: 103%
PKG1α
  activity at 20 µM: 93%
[1]
  activity at 20 µM: 101%
BV-2 cells
  IL-1β production with diverse TLR ligands: suppressed IL-1β production
SGK2
  activity at 20 µM: 92%
CK2
  activity at 20 µM: 106%
CDK3/cyclinE
  activity at 20 µM: 91%
MARK1
  activity at 20 µM: 113%
PAK6
  activity at 20 µM: 99%
[2]
  activity at 20 µM: 101%
ROCK-II
  activity at 20 µM: 99%
MELK
  activity at 20 µM: 90%

## CN(C)c1cc(-c2ccncc2)c(-c2cccc3ccccc23)nn1 [MW181, N,N-dimethyl-6-(naphthalen-1-yl)-5-(pyridin-4-yl)pyridazin-3-amine]
PKCε
  activity at 20 µM: 98%
Met(D1246N)
  activity at 20 µM: 104%
TLK2
  activity at 20 µM: 107%
FGFR3
  activity at 20 µM: 118%
NEK7
  activity at 20 µM: 102%
TSSK1
  activity at 20 µM: 88%
EGFR(L858R)
  activity at 20 µM: 78%
CaMKIIδ
  activity at 20 µM: 106%
CHK2
  activity at 20 µM: 96%
Itk
  activity at 20 µM: 91%
CaMKIδ
  activity at 20 µM: 103%
KDR
  activity at 20 µM: 97%
Haspin
  activity at 20 µM: 93%
cKit
  activity at 20 µM: 106%
Pim-3
  activity at 20 µM: 106%
IKKα
  activity at 20 µM: 112%
CDK2/cyclinA
  activity at 20 µM: 92%
Hck
  activity at 20 µM: 84%
MINK
  activity at 20 µM: 54%
BTK(R28H)
  activity at 20 µM: 96%
ROCK-I
  activity at 20 µM: 97%
Bmx
  activity at 20 µM: 108%
IGF-1R
  activity at 20 µM: 121%
Flt3
  activity at 20 µM: 93%
Rsk4
  activity at 20 µM: 105%
MAPK2
  activity at 20 µM: 97%
Abl(Y253F)
  activity at 20 µM: 108%
Plk1
  activity at 20 µM: 110%
Fms
  activity at 20 µM: 85%
CK2α2; at 20,000 nM inhibitor, kinase activity remaining, read-out: % Activity
  activity at 20 µM: 99%
PKCβII
  activity at 20 µM: 112%
SIK
  activity at 20 µM: 92%
Plk3
  activity at 20 µM: 92%
PKG1α
  activity at 20 µM: 97%
[1]
  activity at 20 µM: 102%
BV-2 cells
  IL-1β production with diverse TLR ligands: suppressed IL-1β production
SGK2
  activity at 20 µM: 102%
CK2
  activity at 20 µM: 104%
CDK3/cyclinE
  activity at 20 µM: 98%
MARK1
  activity at 20 µM: 102%
PAK6
  activity at 20 µM: 101%
[2]
  activity at 20 µM: 100%
ROCK-II
  activity at 20 µM: 108%
MELK
  activity at 20 µM: 91%

Reference: paper PMC3694096, “Development of Novel In Vivo Chemical Probes to Address CNS Protein Kinase Involvement in Synaptic Dysfunction” (PLoS ONE, 2013)
